How the values were obtained:
BT-549 = assay: Cytotoxicity against Homo sapiens (human) BT549 cells after 48 hr by SRB assay; assay type: functional; conditions: BT-549, 48 h
PC-3 = assay: Cytotoxicity against Homo sapiens (human) PC3 cells after 48 hr by SRB assay; assay type: functional; conditions: PC-3, 48 h
TK-10 [1] = assay: Cytotoxicity against Homo sapiens (human) TK10 cells after 48 hr by SRB assay; assay type: functional; conditions: TK-10, 48 h
786-0 = assay: Cytotoxicity against Homo sapiens (human) 786-0 cells after 48 hr by SRB assay; assay type: functional; conditions: 786-0, 48 h
UACC-62 = assay: Cytotoxicity against Homo sapiens (human) UACC62 cells after 48 hr by SRB assay; assay type: functional; conditions: UACC-62, 48 h
MCF7 = assay: Cytotoxicity against Homo sapiens (human) MCF7 cells assessed as cellular growth at 10^-5 M after 48 hr by SRB assay relative to untreated control; assay type: functional
OVCAR-8 = assay: Cytotoxicity against Homo sapiens (human) OVCAR8 cells assessed as cellular growth at 10^-5 M after 48 hr by SRB assay relative to untreated control; assay type: functional
U-251 = assay: Cytotoxicity against Homo sapiens (human) U251 cells assessed as cellular growth at 10^-5 M after 48 hr by SRB assay relative to untreated control; assay type: functional
HCT-116 = assay: Cytotoxicity against Homo sapiens (human) HCT116 cells assessed as cellular growth at 10^-5 M after 48 hr by SRB assay relative to untreated control; assay type: functional
NCI-H522 = assay: Cytotoxicity against Homo sapiens (human) NCI-H522 cells assessed as cellular growth at 10^-5 M after 48 hr by SRB assay relative to untreated control; assay type: functional
NCI-H460 [2] = assay: Cytotoxicity against Homo sapiens (human) NCI-H460 cells assessed as cellular growth at 10^-5 M after 48 hr by SRB assay relative to untreated control; assay type: functional
A549 = assay: Cytotoxicity against Homo sapiens (human) A549 cells assessed as cellular growth at 10^-5 M after 48 hr by SRB assay relative to untreated control; assay type: functional
KM12 = assay: Cytotoxicity against Homo sapiens (human) KM12 cells after 48 hr by SRB assay; assay type: functional; conditions: KM12, 48 h
NCI-H460 [3] = assay: Cytotoxicity against Homo sapiens (human) NCI-H460 cells after 48 hr by SRB assay; assay type: functional; conditions: NCI-H460, 48 h
MOLT-4 = assay: Cytotoxicity against Homo sapiens (human) MOLT4 cells after 48 hr by SRB assay; assay type: functional; conditions: MOLT-4, 48 h
[4] = Toxicity in mouse; assay type: organism-based; conditions: in vivo
HL-60(TB) = assay: Cytotoxicity against Homo sapiens (human) HL-60(TB) cells assessed as cellular growth at 10^-5 M after 48 hr by SRB assay relative to untreated control; assay type: functional
CCRF-CEM = assay: Cytotoxicity against Homo sapiens (human) CCRF-CEM cells assessed as cellular growth at 10^-5 M after 48 hr by SRB assay relative to untreated control; assay type: functional
T47D = assay: Cytotoxicity against Homo sapiens (human) T47D cells assessed as cellular growth at 10^-5 M after 48 hr by SRB assay relative to untreated control; assay type: functional
MDA-MB-468 [5] = assay: Cytotoxicity against Homo sapiens (human) MDA-MB-468 cells at 10^-4 to 10^-8 M after 48 hr by SRB assay; assay type: functional; conditions: MDA-MB-468, 48 h, read-out: pTGI (converted)
MDA-MB-468 [6] = assay: Cytotoxicity against Homo sapiens (human) MDA-MB-468 cells after 48 hr by SRB assay; assay type: functional; conditions: MDA-MB-468, 48 h, read-out: pLC50 (the source's name) (converted)
Hs-578T = assay: Cytotoxicity against Homo sapiens (human) Hs578T cells assessed as cellular growth at 10^-5 M after 48 hr by SRB assay relative to untreated control; assay type: functional
TK-10 [7] = assay: Cytotoxicity against Homo sapiens (human) TK10 cells assessed as cellular growth at 10^-5 M after 48 hr by SRB assay relative to untreated control; assay type: functional
A498 = assay: Cytotoxicity against Homo sapiens (human) A498 cells assessed as cellular growth at 10^-5 M after 48 hr by SRB assay relative to untreated control; assay type: functional
SF-295 = assay: Cytotoxicity against Homo sapiens (human) SF295 cells assessed as cellular growth at 10^-5 M after 48 hr by SRB assay relative to untreated control; assay type: functional

Structure (SMILES): COC(=O)[C@]12CCC(C)(C)C[C@H]1C1=CC[C@@H]3[C@@]4(C)CC/C(=N\O)C(C)(C)[C@@H]4CC[C@@]3(C)[C@]1(C)CC2
- GI50 (BT-549): 64.6 µM
- GI50 (PC-3): 20.4 µM
- GI50 (TK-10 [1]): 33.9 µM
- GI50 (786-0): 17.8 µM
- GI50 (UACC-62): 22.4 µM
- Activity (MCF7): 26.08%
- Activity (OVCAR-8): 11.3%
- Activity (U-251): 33.89%
- Activity (HCT-116): 3.39%
- Activity (NCI-H522): 23.74%
- Activity (NCI-H460 [2]): 44.14%
- Activity (A549): -41.06%
- GI50 (KM12): 38.9 µM
- GI50 (NCI-H460 [3]): 21.9 µM
- GI50 (MOLT-4): 37.2 µM

Structure (SMILES): COC(=O)[C@]12CCC(C)(C)C[C@H]1C1=CC[C@@H]3[C@@]4(C)CC/C(=N\OC(=O)/C=C5/SC(=O)NC5=O)C(C)(C)[C@@H]4CC[C@@]3(C)[C@]1(C)CC2
- MTD [4]: > 400 mg/kg
- Activity (HL-60(TB)): -46.91%
- Activity (CCRF-CEM): -24.8%
- Activity (T47D): 9.18%
- TGI (MDA-MB-468 [5]): 6.61 µM

Structure (SMILES): CC1(C)CC[C@@]23CC[C@]4(C)[C@@](OC2=O)([C@@H]3C1)[C@@H](Br)C[C@@H]1[C@@]2(C)CC/C(=N\O)C(C)(C)[C@@H]2CC[C@]14C
- CC50 (MDA-MB-468 [6]): > 100 µM
- GI50 (BT-549): 9.33 µM
- GI50 (PC-3): 40.7 µM
- GI50 (TK-10 [1]): 18.6 µM
- GI50 (786-0): 49 µM
- GI50 (UACC-62): 18.6 µM
- Activity (Hs-578T): 258.88%
- Activity (TK-10 [7]): 31.05%
- Activity (A498): 150.51%
- Activity (SF-295): 19.14%
- GI50 (KM12): 8.91 µM
- GI50 (NCI-H460 [3]): 19.1 µM
- GI50 (MOLT-4): 14.1 µM

Reference: ChEMBL document CHEMBL3045033, “Synthesis of new potential anticancer agents based on 4-thiazolidinone and oleanane scaffolds” (Med Chem Res, 2012)
